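Where inhibition never reached the appropriate level, the endpoint shown equals the highest concentration tested. Otherwise, values were interpolated linearly from a five-concentration, 48-hour dose response in 96-well plates. At the GI50, growth is halved. TGI is the concentration that stops growth completely.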
Key:
Test in all cases: NCI anticancer screen, dose series, 48 h
786-0 renal = tested on: 786-0 renal
A498 renal = tested on: A498 renal
A549 NSCLC = tested on: A549 NSCLC
ACHN renal = tested on: ACHN renal
BT-549 breast = tested on: BT-549 breast
CAKI-1 renal = tested on: CAKI-1 renal
CCRF-CEM leukemia = tested on: CCRF-CEM leukemia
DU-145 prostate = tested on: DU-145 prostate
EKVX NSCLC = tested on: EKVX NSCLC
HCT-116 colon = tested on: HCT-116 colon
HCT-15 colon = tested on: HCT-15 colon
HL-60(TB) leukemia = tested on: HL-60(TB) leukemia
HOP-62 NSCLC = tested on: HOP-62 NSCLC
HOP-92 NSCLC = tested on: HOP-92 NSCLC
HS 578T breast = tested on: HS 578T breast
HT29 colon = tested on: HT29 colon
IGROV1 ovarian = tested on: IGROV1 ovarian
K-562 leukemia = tested on: K-562 leukemia
KM12 colon = tested on: KM12 colon
LOX IMVI melanoma = tested on: LOX IMVI melanoma
M14 melanoma = tested on: M14 melanoma
MCF7 breast = tested on: MCF7 breast
MDA-MB-231 breast = tested on: MDA-MB-231 breast
MDA-MB-435 = tested on: MDA-MB-435
MOLT-4 leukemia = tested on: MOLT-4 leukemia
NCI-H226 lung = tested on: NCI-H226 lung
NCI-H460 lung = tested on: NCI-H460 lung
NCI-H522 lung = tested on: NCI-H522 lung
OVCAR-3 ovarian = tested on: OVCAR-3 ovarian
OVCAR-4 ovarian = tested on: OVCAR-4 ovarian
OVCAR-8 ovarian = tested on: OVCAR-8 ovarian
PC-3 prostate = tested on: PC-3 prostate
RPMI-8226 leukemia = tested on: RPMI-8226 leukemia
RXF 393 renal = tested on: RXF 393 renal
SF-268 CNS = tested on: SF-268 CNS
SF-295 CNS = tested on: SF-295 CNS
SF-539 CNS = tested on: SF-539 CNS
SK-MEL-2 melanoma = tested on: SK-MEL-2 melanoma
SK-MEL-28 melanoma = tested on: SK-MEL-28 melanoma
SK-MEL-5 melanoma = tested on: SK-MEL-5 melanoma
SN12C renal = tested on: SN12C renal
SNB-75 CNS = tested on: SNB-75 CNS
SR leukemia = tested on: SR leukemia
SW-620 colon = tested on: SW-620 colon
TK-10 renal = tested on: TK-10 renal
U251 CNS = tested on: U251 CNS
UACC-257 melanoma = tested on: UACC-257 melanoma
UACC-62 melanoma = tested on: UACC-62 melanoma
UO-31 renal = tested on: UO-31 renal

In the case of `COc1ccc(CN2C(=O)C(Cl)=C(Nc3cccc(O)c3)C2=O)cc1`, the GI50 (786-0 renal) is reported as 4.23 µM, the TGI (786-0 renal) is reported as over 100 µM and the GI50 (A498 renal) is reported as 14.2 µM. For the same molecule, the TGI (A498 renal) was 35.7 µM, the GI50 (A549 NSCLC) was 3.15 µM and the TGI (A549 NSCLC) was 20.5 µM. The GI50 (ACHN renal) was 10.9 µM, the TGI (ACHN renal) was 57.3 µM and the GI50 (BT-549 breast) was 13.7 µM. For the same molecule, the TGI (BT-549 breast) was 45.4 µM, the GI50 (CAKI-1 renal) was 1.68 µM and the TGI (CAKI-1 renal) was 21.3 µM. For the same molecule, the GI50 (CCRF-CEM leukemia) was 0.748 µM, the TGI (CCRF-CEM leukemia) was 20.9 µM and the GI50 (DU-145 prostate) was 13.8 µM. For the same molecule, the TGI (DU-145 prostate) was 33 µM, the GI50 (EKVX NSCLC) was 21.5 µM and the TGI (EKVX NSCLC) was 56 µM. For the same molecule, the GI50 (HCT-116 colon) was 1.14 µM, the TGI (HCT-116 colon) was 19.8 µM and the GI50 (HCT-15 colon) was 2.05 µM. For the same molecule, the TGI (HCT-15 colon) was 21.4 µM, the GI50 (HL-60(TB) leukemia) was 1.29 µM and the TGI (HL-60(TB) leukemia) was 7.49 µM. It also gave a GI50 (HOP-62 NSCLC) of 8.61 µM, a TGI (HOP-62 NSCLC) of over 100 µM and a GI50 (HOP-92 NSCLC) of 12.1 µM. It also gave a TGI (HOP-92 NSCLC) of 59.6 µM, a GI50 (HS 578T breast) of 9.62 µM and a TGI (HS 578T breast) of 51.7 µM. The GI50 (HT29 colon) was 18 µM, the TGI (HT29 colon) was over 100 µM and the GI50 (IGROV1 ovarian) was 0.591 µM. The TGI (IGROV1 ovarian) was 15.2 µM, the GI50 (K-562 leukemia) was 0.349 µM and the TGI (K-562 leukemia) was 9.13 µM. It also gave a GI50 (KM12 colon) of 0.801 µM, a TGI (KM12 colon) of 21.6 µM and a GI50 (LOX IMVI melanoma) of 5.7 µM. It also gave a TGI (LOX IMVI melanoma) of 23 µM, a GI50 (M14 melanoma) of 5.63 µM and a TGI (M14 melanoma) of 75.7 µM. For the same molecule, the GI50 (MCF7 breast) was 3.64 µM, the TGI (MCF7 breast) was 15.6 µM and the GI50 (MDA-MB-231 breast) was 6.43 µM. For the same molecule, the TGI (MDA-MB-231 breast) was over 100 µM, the GI50 (MDA-MB-435) was 0.269 µM and the TGI (MDA-MB-435) was 1.7 µM. For the same molecule, the GI50 (MOLT-4 leukemia) was 0.501 µM, the TGI (MOLT-4 leukemia) was 10.5 µM and the GI50 (NCI-H226 lung) was 6.44 µM. The TGI (NCI-H226 lung) was 50.5 µM, the GI50 (NCI-H460 lung) was 14.6 µM and the TGI (NCI-H460 lung) was 31.6 µM. It also gave a GI50 (NCI-H522 lung) of 2.31 µM, a TGI (NCI-H522 lung) of 17.6 µM and a GI50 (OVCAR-3 ovarian) of 1.73 µM. The TGI (OVCAR-3 ovarian) was 23.5 µM, the GI50 (OVCAR-4 ovarian) was 45.1 µM and the TGI (OVCAR-4 ovarian) was over 100 µM. For the same molecule, the GI50 (OVCAR-8 ovarian) was 2.99 µM, the TGI (OVCAR-8 ovarian) was 15 µM and the GI50 (PC-3 prostate) was 4.39 µM. The TGI (PC-3 prostate) was 36.1 µM, the GI50 (RPMI-8226 leukemia) was 0.807 µM and the TGI (RPMI-8226 leukemia) was 11.7 µM. For the same molecule, the GI50 (RXF 393 renal) was 2.16 µM, the TGI (RXF 393 renal) was 11.3 µM and the GI50 (SF-268 CNS) was 17.2 µM. For the same molecule, the TGI (SF-268 CNS) was 45.8 µM, the GI50 (SF-295 CNS) was 2.75 µM and the TGI (SF-295 CNS) was 31.2 µM. For the same molecule, the GI50 (SF-539 CNS) was 4.24 µM, the TGI (SF-539 CNS) was 15.9 µM and the GI50 (SK-MEL-2 melanoma) was 4.16 µM. For the same molecule, the TGI (SK-MEL-2 melanoma) was 24.5 µM, the GI50 (SK-MEL-28 melanoma) was 13.3 µM and the TGI (SK-MEL-28 melanoma) was over 100 µM. The GI50 (SK-MEL-5 melanoma) was 3.78 µM, the TGI (SK-MEL-5 melanoma) was 17.7 µM and the GI50 (SN12C renal) was 4.03 µM. The TGI (SN12C renal) was 20.1 µM, the GI50 (SNB-75 CNS) was 6.73 µM and the TGI (SNB-75 CNS) was over 100 µM. For the same molecule, the GI50 (SR leukemia) was 0.185 µM, the TGI (SR leukemia) was 0.465 µM and the GI50 (SW-620 colon) was 4.69 µM. It also gave a TGI (SW-620 colon) of over 100 µM, a GI50 (TK-10 renal) of 3.77 µM and a TGI (TK-10 renal) of 37 µM. It also gave a GI50 (U251 CNS) of 5.05 µM, a TGI (U251 CNS) of 21.1 µM and a GI50 (UACC-257 melanoma) of 5.64 µM. For the same molecule, the TGI (UACC-257 melanoma) was 19.2 µM, the GI50 (UACC-62 melanoma) was 2.83 µM and the TGI (UACC-62 melanoma) was 21.1 µM. The GI50 (UO-31 renal) was 6.91 µM and the TGI (UO-31 renal) was 95.1 µM.

— PubChem BioAssay (NCI)
